Article PMC3469756 (Journal of medicinal chemistry, 2012)
Where two headings read alike, the source gives them in different places.

Key:
[1] = tested on: PDE1C; conditions: PDE9 versus PDE1C, cited from earlier work
[2] = target: the molecule itself; assay: crystal structure

Molecule	selectivity against PDE1C [1]	selectivity against PDE1C ([1]; listed as PF-04447943)	binding result [2]
C[C@@H]1CN(Cc2ncccn2)C[C@H]1c1nc2c(cnn2C2CCOCC2)c(=O)[nH]1 [compound 9, 6-[(3S,4S)-4-methyl-1-(pyrimidin-2-ylmethyl)pyrrolidin-3-yl]-1-(tetrahydro-2H-pyran4-yl)-1,5-dihydro-4H-pyrazolo[3,4-d]pyrimidin-4-one]	170 fold	about 170 fold	
PDE9A2 catalytic domain (residues 181-506) (domain or fragment, UniProt O76083-2 181-506, looked up) PTYPKYLLSPETIEALRKPTFDVWLWEPNEMLSCLEHMYHDLGLVRDFSINPVTLRRWLFCVHDNYRNNPFHNFRHCFCVAQMMYSMVWLCSLQEKFSQTDILILMTAAICHDLDHPGYNNTYQINARTELAVRYNDISPLENHHCAVAFQILAEPECNIFSNIPPDGFKQIRQGMITLILATDMARHAEIMDSFKEKMENFDYSNEEHMTLLKMILIKCCDISNEVRPMEVAEPWVDCLLEEYFMQSDREKSEGLPVAPFMDRDKVTKATAQIGFIKFVLIPMFETVTKLFPMVEEIMLQPLWESRDRYEELKRIDDAMKELQKK			binds
